Laboratory results from patent US11578055B2, “Triazacyclododecansulfonamide (“TCD”)-based protein secretion inhibitors” (KEZAR LIFE SCIENCES, priority 2018, dated 2023).

Columns and labels:
[1] = tested on: PD1 signal sequence plus 10 amino acids fused to Gaussia Luciferase (PD1-ss+10aa/Gaussia Luciferase); assay: Dox Induced PD1-ss-Gluc Assay; format: cell-based; details: 24 hr, 293FRT/TO; read-out: 24 hr Dox Inducible PD1ssGluc 293FRT/TO: Mean IC50
Summary of the method: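 Stable Flp-In 293 T-REx line expressing the fusion under tetracycline-inducible control, plated the day before assay. Compound dilutions added with doxycycline and incubated at 37 °C, 5% CO2; unspecified stereocentres mean data refer to stereoisomer mixtures.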

[2] = tested on: full length TNFα (amino acids 1-233) fused to Gaussia Luciferase; assay: Dox Induced TNFα-FL-Gluc Assay; format: cell-based; details: 24 hr, 293FRT/TO; read-out: 24 hr Dox Inducible TNFaFLGluc 293FRT/TO: Mean IC50
Summary of the method: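 Stable Flp-In 293 T-REx line expressing doxycycline-inducible full-length TNFα fused to Gaussia luciferase; cells plated the day before, then treated with compound dilutions in doxycycline-containing medium at 37° C, 5% CO2. Unspecified stereocentres mean stereoisomer mixtures were tested.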

[3] = tested on: full length IL-2 (amino acids 1-153) fused to Gaussia Luciferase; assay: Dox Induced IL2-FL-Gluc Assay; format: cell-based; details: 24 hr, 293FRT/TO; read-out: 24 hr Dox Inducible IL2FLGluc 293FRT/TO: Mean IC50
Description: FIp-In 293 T-REx™ cells were transfected with pcDNA™5/FRT/TO plasmid inserted with cDNA encoding Gaussia Luciferase fused to the 3′ end of cDNA encoding full length IL-2 (amino acids 1-153). Transfected cells were selected for resistance to the selectable markers Hygromycin and Blasticidin to create a stable cell line that contained the IL-2-FL/Gaussia Luciferase cDNA insert whose expression was regulated under the T-REx™ system. The day before assay, cells were trypsinized and plated in 384-well tissue culture plates. The next day, compound dilutions in DMSO/media containing doxycycline were added to the wells and incubated at 37° C., 5% CO2.
For chemical structures that include one or more stereoisomers, but are illustrated without indicating stereochemistry, the assay data refers to a mixture of stereoisomers.

[4] = tested on: multiple myeloma cell line NCl-H929; assay: H929 Cell Viability Assay; format: cell-based, human; details: Homo sapiens, NCI-H929, 48 h, H929, read-out: 48 hr H929 Viability Celltiter-Glo: Mean EC50
Summary of the method: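 NCI-H929 myeloma cells in RPMI 1640 with 10% FBS were treated with compound dilutions for 48 h at 37 °C, and viability was then read by CellTiter-Glo luminescence. Compounds drawn without stereochemistry were tested as stereoisomer mixtures.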

[5] = tested on: multiple myeloma cell line U266B1; assay: U266 Cell Viability Assay; format: cell-based, human; details: Homo sapiens, U-266; 48 hr, U266; read-out: 48 hr U266 Viability Celltiter-Glo: Mean EC50
Summary of the method: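 U266B1 myeloma cells in RPMI 1640 with 10% FBS were treated with compound dilutions for 48 h at 37° C, 5% CO2. Viability was read as CellTiter-Glo luminescence. Data for structures drawn without stereochemistry refer to stereoisomer mixtures.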

[6] = In Vitro Microsome Stability Assay (human); format: in vitro ADME
Summary of the method: (§1)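 The value reported is the percentage of parent left after 30 min, calculated from analyte/IS peak-area ratios relative to time zero by LC-MS/MS. Incubations ran at 37° C in 0.1 M potassium phosphate with NADPH and microsomes (stock 20 mg/mL), with compound added from a 0.25 mM DMSO stock. Acetonitrile containing IS stopped the reactions.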

[7] = In Vitro Microsome Stability Assay (mouse); format: in vitro ADME; details: mouse, 30 min, NADPH
Summary of the method: as §1

[8] = In Vitro Microsome Stability Assay (rat); format: in vitro ADME; details: rat, 30 min, NADPH
Summary of the method: as §1

[9] = In Vitro Microsome Stability Assay (monkey); format: in vitro ADME
Summary of the method: as §1

Row | SMILES | IC50 [1] | IC50 [2] | IC50 [3] | EC50 [4] | EC50 [5] | Liver Microsome Stability-% Left after 30 min w/ NADPH (%) Human ([6]; human, 30 min, NADPH) | Liver Microsome Stability-% Left after 30 min w/ NADPH (%) Mouse [7] | Liver Microsome Stability-% Left after 30 min w/ NADPH (%) Rat [8] | Liver Microsome Stability-% Left after 30 min w/ NADPH (%) Monkey ([9]; monkey, 30 min, NADPH) | Liver Microsome Stability-% Left after 30 min w/ NADPH (%) Human ([6]; human liver microsomes, 30 min w/ NADPH) | Liver Microsome Stability-% Left after 30 min w/ NADPH (%) Monkey ([9]; monkey liver microsomes, 30 min w/ NADPH)
1 | C[C@H]1CN(S(=O)(=O)c2ccc(N(C)C)cc2)CCCN(CC2CCCCC2)CCCN(S(=O)(=O)N2CC[C@@H](c3ccccc3)C2)C1 [A90, 4-{[(3S)-9-(cyclohexylmethyl)-3-methyl-5-{[(3S)-3-phenylpyrrolidin-1-yl]sulfonyl}-1,5,9-triazacyclododecan-1-yl]sulfonyl}-N,N-dimethylaniline] | 207 nM | 2410 nM | 493 nM | 3790 nM | > 25000 nM | 20.1% | 28.2% | 20.2% | 14.1% | – | –
2 | C[C@H]1CN(S(=O)(=O)c2ccc(N(C)C)cc2)CCCN(CC2CCCCC2)CCCN(S(=O)(=O)N2CC[C@H](c3ccccc3)C2)C1 [A91, 4-{[(3S)-9-(cyclohexylmethyl)-3-methyl-5-{[(3 R)-3-phenylpyrrolidin-1-yl]sulfonyl}-1,5,9-triazacyclododecan-1-yl]sulfonyl}-N,N-dimethylaniline] | 193 nM | 2460 nM | 377 nM | 3010 nM | 14700 nM | 23.7% | 25.4% | 21.6% | 21.8% | – | –
3 | C[C@H]1CN(S(=O)(=O)c2ccc(N(C)C)cc2)CCCN(CC2CCCCC2)CCCN(S(=O)(=O)N2CCC(Oc3ccccc3)CC2)C1 [A92, 4-{[(3S)-9-(cyclohexylmethyl)-3-methyl-5-[(4-phenoxypiperidin-1-yl)sulfonyl]-1,5,9-triazacyclododecan-1-yl]sulfonyl}-N,N-dimethylaniline] | 304 nM | > 25000 nM | 519 nM | > 25000 nM | > 25000 nM | 44.3% | 40.8% | 51.8% | 40.4% | – | –
4 | C[C@H]1CN(S(=O)(=O)c2ccc(N(C)C)cc2)CCCN(CC2CCCCC2)CCCN(S(=O)(=O)N2CCN(c3ncccn3)CC2)C1 [A93, 4-{[(3S)-9-(cyclohexylmethyl)-3-methyl-5-{[4-(pyrimidin-2-yl)piperazin-1-yl]sulfonyl}-1,5,9-triazacyclododecan-1-yl]sulfonyl}-N,N-dimethylaniline] | 670 nM | > 25000 nM | 911 nM | 10400 nM | > 25000 nM | 0.84% | 0.4% | 0.51% | 0.18% | – | –
5 | Cc1cccc(N2CCN(S(=O)(=O)N3CCCN(CC4CCCCC4)CCCN(S(=O)(=O)c4ccc(N(C)C)cc4)C[C@H](C)C3)CC2)c1 [A98, 4-{[(3S)-9-(cyclohexylmethyl)-3-methyl-5-{[4-(3-methylphenyl)piperazin-1-yl]sulfonyl}-1,5,9-triazacyclododecan-1-yl]sulfonyl}-N,N-dimethylaniline] | 202 nM | 7340 nM | 351 nM | > 25000 nM | > 25000 nM | 57.5% | 55.2% | 32.8% | 26.9% | – | –
6 | Cc1ccc(N2CCN(S(=O)(=O)N3CCCN(CC4CCCCC4)CCCN(S(=O)(=O)c4ccc(N(C)C)cc4)C[C@H](C)C3)CC2)cc1 [A99, 4-{[(3S)-9-(cyclohexylmethyl)-3-methyl-5-{[4-(4-methylphenyl)piperazin-1-yl]sulfonyl}-1,5,9-triazacyclododecan-1-yl]sulfonyl}-N,N-dimethylaniline] | 116 nM | 3540 nM | 350 nM | > 25000 nM | > 25000 nM | – | 60.8% | 50.8% | – | 41.9% | 37%

Other lines, results leading:

Row | IC50 [1] | IC50 [2] | IC50 [3] | EC50 [4] | EC50 [5] | Liver Microsome Stability-% Left after 30 min w/ NADPH (%) Human ([6]; human, 30 min, NADPH) | Liver Microsome Stability-% Left after 30 min w/ NADPH (%) Mouse [7] | Liver Microsome Stability-% Left after 30 min w/ NADPH (%) Rat [8] | Liver Microsome Stability-% Left after 30 min w/ NADPH (%) Monkey ([9]; monkey, 30 min, NADPH) | Liver Microsome Stability-% Left after 30 min w/ NADPH (%) Human ([6]; human liver microsomes, 30 min w/ NADPH) | Liver Microsome Stability-% Left after 30 min w/ NADPH (%) Monkey ([9]; monkey liver microsomes, 30 min w/ NADPH) | SMILES
7 | 36.4 nM | 550 nM | 78.3 nM | 800 nM | > 25000 nM | 42.1% | 45.7% | 45.5% | 30.3% | – | – | C[C@H]1CN(S(=O)(=O)c2ccc(N(C)C)cc2)CCCN(CC2CCCCC2)CCCN(S(=O)(=O)N2CCN(c3ccccc3F)CC2)C1 [A94, 4-{[(3S)-9-(cyclohexylmethyl)-5-{[4-(2-fluorophenyl)piperazin-1-yl]sulfonyl}-3-methyl-1,5,9-triazacyclododecan-1-yl]sulfonyl}-N,N-dimethylaniline]
8 | 198 nM | 4900 nM | 391 nM | 6710 nM | > 25000 nM | 43.9% | 54.2% | 43.1% | 46.1% | – | – | C[C@H]1CN(S(=O)(=O)c2ccc(N(C)C)cc2)CCCN(CC2CCCCC2)CCCN(S(=O)(=O)N2CCN(c3cccc(F)c3)CC2)C1 [A95, 4-{[(3S)-9-(cyclohexylmethyl)-5-{[4-(3-fluorophenyl)piperazin-1-yl]sulfonyl}-3-methyl-1,5,9-triazacyclododecan-1-yl]sulfonyl}-N,N-dimethylaniline]
9 | 122 nM | 1850 nM | 232 nM | 5100 nM | > 25000 nM | 40.5% | 37.6% | 41.9% | 32.8% | – | – | C[C@H]1CN(S(=O)(=O)c2ccc(N(C)C)cc2)CCCN(CC2CCCCC2)CCCN(S(=O)(=O)N2CCN(c3ccc(F)cc3)CC2)C1 [A96, 4-{[(3S)-9-(cyclohexylmethyl)-5-{[4-(4-fluorophenyl)piperazin-1-yl]sulfonyl}-3-methyl-1,5,9-triazacyclododecan-1-yl]sulfonyl}-N,N-dimethylaniline]
10 | 41.8 nM | 566 nM | 87 nM | 726 nM | > 25000 nM | 71.1% | 77.7% | 71.4% | 66.1% | – | – | Cc1ccccc1N1CCN(S(=O)(=O)N2CCCN(CC3CCCCC3)CCCN(S(=O)(=O)c3ccc(N(C)C)cc3)C[C@H](C)C2)CC1 [A97, 4-{[(3S)-9-(cyclohexylmethyl)-3-methyl-5-{[4-(2-methylphenyl)piperazin-1-yl]sulfonyl}-1,5,9-triazacyclododecan-1-yl]sulfonyl}-N,N-dimethylaniline]
